Reference: US20070178166A1, “PROCESSES FOR MAKING PARTICLE-BASED PHARMACEUTICAL FORMULATIONS FOR PULMONARY OR NASAL ADMINISTRATION” (priority 2005, published 2007)

Experiment: Dry powder particle sizing using a Malvern Mastersizer
Type: physicochemical
Text: The following materials were used in the examples: mannitol (Spectrum Chemicals, New Brunswick, N.J., unless otherwise indicated), TWEENTM 80 (Spectrum Chemicals, New Brunswick, N.J.), celecoxib (Onbio, Ontario, Canada), Plasdone-C 15 (International Specialty Products, Wayne, N.Y.), budesonide (Byron Chemical Company, Long Island, N.Y.), dipalmitoyl phosphatidylcholine (DPPC) (Chemi S.p.a., Milan, Italy, unless otherwise indicated), PLGA (Boehringer Ingelheim Fine Chemicals, Ingelheim, Germany), ammonium bicarbonate (Spectrum Chemicals, Gardenia, Calif.), methylene chloride (EM Science, Gibbstown, N.J.), Fluticasone propionate ([…]., Mumbai, India), and lactose (Pharmatose […], DMV International, The Netherlands). The TWEENTM 80 is hereinafter referred to as “Tween80.” The volume average diameter of lactose (Pharmatose […]) was determined to be approximately 68 μm by dry powder particle sizing using a Malvern Mastersizer (Malvern Instruments Ltd., United Kingdom).

Q: With `OC[C@H]1O[C@@H](O[C@H]2[C@H](O)[C@@H](O)C(O)O[C@@H]2CO)[C@H](O)[C@@H](O)[C@H]1O` (stereo partly shown) [lactose (Pharmatose 325M), lactose] as the compound, how does the volume average diameter read?
A: approximately 68 μm
